Data from patent US12692274B2, “Tetrahydroisoquinoline derivatives for the treatment of red blood disorders and inflammatory diseases” (Sanofi, priority 2020, dated 2026).
“And” between values parts separate entries of the source, which are not always exact repeats. Equal entries are not always repeated.

Experiments:
[1] = test system: NQO1 activation in BEAS-2B cells; test: BEAS-2B cellular MTT assay of NQO1 activation, 0.3% HSA; format: cell-based
In short: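 BEAS-2B cells (<70% confluent in culture, BEBM/SingleQuots without GA-1000) seeded in collagen plates with 0.3% or 0% HSA, reaching 95-100% confluency after 48 h at 37 °C, 5% CO2; MTT read-out.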

[2] = test system: NQO1 activation in BEAS-2B cells; test: BEAS-2B cellular MTT assay of NQO1 activation, 0% HSA; format: cell-based
In short: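 BEAS-2B cells grown in BEBM with BEGM SingleQuots (no GA-1000), kept below 70% confluence, seeded on collagen plates at a density giving 95-100% confluence after 48 h. Plates seeded in medium without HSA (0% HSA condition).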

[3] = target: HIS-Keap1 full length / Biotin-Nrf2 (16-mer) (Homo sapiens, UniProt Q14145); test: biochemical
Chain of HIS-Keap1 full length / Biotin-Nrf2 (16-mer) (Q14145 whole entry): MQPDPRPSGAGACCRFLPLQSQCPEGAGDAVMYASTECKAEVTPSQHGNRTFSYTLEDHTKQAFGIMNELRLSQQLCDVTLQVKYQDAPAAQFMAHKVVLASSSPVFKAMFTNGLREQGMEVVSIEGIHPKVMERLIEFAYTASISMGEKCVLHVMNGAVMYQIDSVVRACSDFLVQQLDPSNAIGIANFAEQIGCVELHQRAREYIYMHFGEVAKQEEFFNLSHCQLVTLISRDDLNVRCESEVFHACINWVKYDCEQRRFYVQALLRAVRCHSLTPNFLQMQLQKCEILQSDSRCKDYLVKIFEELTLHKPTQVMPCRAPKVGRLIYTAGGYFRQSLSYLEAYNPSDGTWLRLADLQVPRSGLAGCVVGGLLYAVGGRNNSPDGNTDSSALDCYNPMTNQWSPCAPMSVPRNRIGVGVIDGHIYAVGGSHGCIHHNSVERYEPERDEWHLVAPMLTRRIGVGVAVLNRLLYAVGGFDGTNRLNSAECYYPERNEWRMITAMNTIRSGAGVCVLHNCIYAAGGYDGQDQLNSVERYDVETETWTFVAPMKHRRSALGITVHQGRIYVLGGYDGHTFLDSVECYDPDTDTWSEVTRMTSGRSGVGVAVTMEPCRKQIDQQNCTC

[4] = Homo sapiens, BEAS+, read-out: BEAS+ EC50
[5] = Homo sapiens, serum free, read-out: BEAS EC50 (nM) serum free
[6] = serum free, read-out: BEAS EC50 (nM) serum free
[7] = BEAS+ W, read-out: BEAS+ W EC50
[8] = Homo sapiens, BEAS+ W, read-out: BEAS+ W EC50
[9] = Homo sapiens, Serum Free W, read-out: BEAS EC50 (nM) Serum Free W
[10] = Serum Free W, read-out: BEAS EC50 (nM) Serum Free W

Structure (SMILES) | EC50 ([1]; BEAS+, read-out: BEAS+ EC50) | EC50 [1, 4] | EC50 [2, 5] | EC50 [2, 6] | IC50 [3] | EC50 [1, 7] | EC50 [1, 8] | EC50 [2, 9] | EC50 [2, 10]
O=C(O)CC1c2ccc3c(c2)CN(CC3)C(=O)c2ncc(cc2F)CCCCCn2nnc3c(Cl)c1ccc32 (stereo not shown) [Compound 215] | 310 nM | 349 nM | 243 nM | 251 nM | 1 nM and 1.1 nM | – | – | – | –
O=C(O)CC1c2ccc3c(c2)CN(CC3)C(=O)c2ccc(cn2)OCCCCCCn2nnc3c(Cl)c1ccc32 (stereo not shown) [Compound 214] | 241 nM | 234 nM | 245 nM | 132 nM | 2.3 nM and 2.1 nM | – | – | – | –
O=C(O)C[C@@H]1c2ccc(nc2)OCCCCCc2ccc(cc2)C(=O)N2CCc3ccc1cc3C2 [Compound 173] | 13.1 nM | 12.8 nM | 3.7 nM | 4.3 nM | 12.5 nM and 12.4 nM | – | – | – | –
Cc1c2ccc3c1nnn3CCCCCCc1ccc3c(c1)nc(n3C)C(=O)N1CCc3ccc(cc3C1)C2CC(=O)O (stereo not shown) [Compound 206] | 119 nM | 89.9 nM | 64 nM | 38.5 nM | 5.3 nM and 5.7 nM | – | – | – | –
COc1cc2ccc1CCCCCCn1nnc3c(C)c(cnc31)[C@@H](CC(=O)O)c1ccc3c(c1)CN(CC3)C2=O [Compound 96] | – | – | – | – | 0.8 nM | 49.6 nM | 42.8 nM | 25.5 nM | 29.4 nM
Cc1c2ccc3c1nnn3CCCCCc1ccc(cc1)C(=O)N1CCc3ccc(cc3C1)[C@H]2CC(=O)O [Compound 286] | – | 44.5 nM | 15.8 nM | – | 0.7 nM | – | – | – | –
O=C(O)C[C@H]1c2ccc(nc2)OCCCCCc2ccc(cc2)C(=O)N2CCc3ccc1cc3C2 [Compound 172] | 263 nM | 188 nM | 79.2 nM | 73 nM | 216 nM and 227 nM | – | – | – | –
Cc1c2ccc3c1nnn3CCCCCc1ccc3c(c1)c(cn3C)C(=O)N1CCc3ccc(cc3C1)C2CC(=O)O (stereo not shown) [Compound 362, 2-(5,33-dimethyl-2-oxo-1,5,15,16,17-pentazaheptacyclo[22.5.3.26,9.118,22.03,7.015,19.027,31]pentatriaconta-3,6,8,16,18(33),19,21,24(32),25,27(31),34-undecaen-23-yl)acetic Acid] | – | > 10000 nM | 3250 nM | 3760 nM | 50 nM and 47.3 nM | – | – | – | –
Cc1cc2ccc1C(=O)N1CCc3ccc(cc3C1)C(CC(=O)O)c1cnc(nc1)OCCCCO2 (stereo not shown) [Compound 182] | – | – | – | – | 55.7 nM and 44 nM | – | > 10000 nM | > 1000 nM | –
Cc1cc2ncc1[C@H]([C@H](C)C(=O)O)c1ccc3c(c1)CN(CC3)C(=O)c1ccc(cc1)C/C=C/CCO2 [Compound 62] | – | – | – | – | 0.4 nM and 0.8 nM | 0.4 nM and 0.3 nM | < 0.5 nM | 0.2 nM | 0.1 nM
Cn1c2cc3cc(cnc31)CCCCCn1nnc3c(Cl)c(ccc31)C(CC(=O)O)c1ccc3c(c1)CN(CC3)C2=O (stereo not shown) [Compound 174] | 15.5 nM | 29.4 nM | 5.8 nM | 7.3 nM | 2 nM and 2.1 nM | – | – | – | –
Cc1cc2ncc1C(CC(=O)O)c1ccc3c(c1)CN(CC3)C(=O)c1c(F)cc(cc1F)CCCCCO2 (stereo not shown) [Compound 161] | 6 nM and 7.5 nM and 5.2 nM | 7.8 nM | 1.4 nM | 0.7 nM and 1.1 nM | 2.5 nM and 2.3 nM and 1 nM (2×) | – | – | – | –
Cn1c2cc3cc(ccc31)OCCCCCCn1nnc3cc(ccc31)C(CC(=O)O)c1ccc3c(c1)CN(CC3)C2=O (stereo not shown) [Compound 310] | 9570 nM | 9100 nM | 698 nM | – | 0.3 nM and < 0.1 nM | – | – | – | –
O=C(O)CC1c2ccc(nc2)OCCCCCOc2ccc(c(F)c2)C(=O)N2CCc3ccc1cc3C2 (stereo not shown) [Compound 268] | – | 561 nM | 505 nM | – | 68.1 nM and 70.7 nM | – | – | – | –
Cc1cc2ncc1C(CC(=O)O)c1ccc3c(c1)CN(CC3)C(=O)c1cn(C)c3ccc(cc13)CCCCCO2 (stereo not shown) [Compound 126] | – | – | – | – | > 990 nM | – | > 10000 nM | > 1000 nM | –
Cc1cc2ccc1C(=O)N1CCc3ccc(cc3C1)[C@@H](CC(=O)O)c1ccc3c(c1)nnn3CCCCCCO2 [Compound 327] | – | 179 nM | 52.9 nM | 46.9 nM | 0.8 nM and 2.3 nM | – | – | – | –

Structure (SMILES) | EC50 ([1]; BEAS+, read-out: BEAS+ EC50) | EC50 [1, 4] | EC50 [2, 5] | EC50 [2, 6] | IC50 [3] | EC50 [1, 7] | EC50 [1, 8] | EC50 [2, 9] | EC50 [2, 10]
O=C(O)C[C@@H]1c2cnc(nc2)OCC/C=C/Cc2c(F)c(F)c(c(F)c2F)C(=O)N2CCc3ccc1cc3C2 [Compound 40] | – | – | – | – | 46.2 nM and 53.6 nM | – | 3580 nM | > 1000 nM | –
C[C@H](C(=O)O)[C@H]1c2ccc3c(c2)CN(CC3)C(=O)c2ccc(cc2)OCCCCCCn2nnc3cc1ccc32 [Compound 323] | – | 386 nM | 135 nM | – | 1.2 nM and 1.8 nM | – | – | – | –
O=C(O)C[C@@H]1c2cnc(nc2)OCCCCCc2c(F)c(F)c(c(F)c2F)C(=O)N2CCc3ccc1cc3C2 [Compound 44] | – | – | – | – | 6.7 nM and 5.1 nM | – | 1560 nM | 393 nM | –
O=C(O)CC1c2ccc(cc2)OCCCCCCOc2ccc(cc2)C(=O)N2CCc3ccc1cc3C2 (stereo not shown) [Compound 391] | 1950 nM | 2060 nM | 8.8 nM | 7.9 nM | 276 nM and 265 nM | – | – | – | –
Cc1c2ccc3c1nnn3CCCOCCOc1ccc(c(F)c1)C(=O)N1CCc3ccc(cc3C1)C2CC(=O)O (stereo not shown) [Compound 383] | 187 nM | 196 nM | 179 nM | 162 nM | 0.9 nM | – | – | – | –
O=C(O)CC1c2ccc3c(c2)CN(CC3)C(=O)c2ccc(cc2F)OCCCCCCn2nnc3cc1ccc32 (stereo not shown) [Compound 322] | – | 231 nM | 176 nM | – | 0.8 nM and 1 nM | – | – | – | –
O=C(O)CC1c2cnc(nc2)OCCCCCc2ccc(c(F)c2)C(=O)N2CCc3ccc1cc3C2 (stereo not shown) [Compound 238] | 603 nM | 572 nM | 571 nM | 377 nM | 6.2 nM | – | – | – | –
Cc1cc2ccc1C(=O)N1CCc3ccc(cc3C1)C(CC(=O)O)c1cnc3c(nnn3CCCCCCO2)c1C (stereo not shown) [Compound 218] | 37.5 nM | 29.3 nM | 27.5 nM | 39.7 nM | 0.8 nM | – | – | – | –
Cc1c2ccc3c1nnn3CCCCCCOc1cnc(c(F)c1)C(=O)N1CCc3ccc(cc3C1)C2CC(=O)O (stereo not shown) [Compound 217] | 301 nM | 429 nM | 371 nM | 360 nM | 1.9 nM and 2.1 nM | – | – | – | –
O=C(O)CC1c2ccc(nc2)OCCCCCc2cnc(c(F)c2)C(=O)N2CCc3ccc1cc3C2 (stereo not shown) [Compound 194] | 829 nM | 1080 nM | 870 nM | 1100 nM | 24.3 nM and 22.9 nM | – | – | – | –
Cc1c2cnc3c1nnn3CCCCCc1ccc(cc1)C(=O)N1CCc3ccc(cc3C1)[C@@H]2CC(=O)O [Compound 124] | – | – | – | – | 0.6 nM | 12.5 nM | 9 nM | 7.6 nM | 7.3 nM
CC(C(=O)O)C1c2ccc3c(c2)CN(CC3)C(=O)c2ccc(cc2)OCCCCCn2nnc3cc1ccc32 (stereo not shown) [Compound 325] | – | 4 nM | 2.9 nM | – | < 0.1 nM | – | – | – | –
Cc1c2ccc3c1nnn3CCCCCCOc1ccc(c3ccccc13)C(=O)N1CCc3ccc(cc3C1)C2CC(=O)O (stereo not shown) [Compound 284] | – | 22.8 nM | 3.4 nM | – | 0.4 nM and 0.3 nM | – | – | – | –
CC(C)(C(=O)O)C1c2ccc3c(c2)CN(CC3)C(=O)c2ccc(cc2)CCCCCCn2nnc3cc1ccc32 (stereo not shown) [Compound 279] | – | 10.7 nM | 10.8 nM | – | 2.3 nM and 2.2 nM (2×) and 2.1 nM | – | – | – | –
C[C@H](C(=O)O)[C@@H]1c2ccc(nc2)OCCCCCc2ccc(cc2)C(=O)N2CCc3ccc1cc3C2 [Compound 55] | – | – | – | – | 215 nM and 226 nM and 220 nM and 201 nM | 354 nM | 482 nM | 125 nM | 147 nM
